Some test systems named below: CAKI-1; Malme-3M; UO-31; SK-MEL-2; KM12; MDA-MB-435; A549; Hs-578T; NCI-H23; SK-MEL-28; BT-549; EKVX; SNB-75; HCC 2998; SN12C; ACHN; OVCAR-5; RXF 393; OVCAR-8; MCF7.
Experiment in all cases: NCI anticancer screen, dose series, 48 h

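48-hour exposure; five concentrations; linearly interpolated endpoints. At the GI50, growth is halved.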 Active and inactive are the calls of the source. Cut-off read from the data, not from the text of the source: active = GI50 up to about 1.1 µM and inactive = higher. Where only a bound is given, the exact number is not on record here.

Regarding `CN1CCc2cc(N)cc3c2C1Cc1ccc(O)c(O)c1-3` (configuration not stated), the GI50 was 37.2 µM (inactive) with CAKI-1; 37.8 µM (inactive) in the experiment on Malme-3M; 42.8 µM (inactive) in the experiment with UO-31; 40.9 µM (inactive) in the experiment on SK-MEL-2; 33.4 µM (inactive) in the experiment with KM12; 36.8 µM (inactive) in the experiment with MDA-MB-435. Further, the GI50 with A549 is 34.2 µM (inactive); in the experiment on Hs-578T it was 53.5 µM (inactive); in the experiment with NCI-H23, 46.8 µM (inactive); with SK-MEL-28, 35.6 µM (inactive); in the experiment with BT-549 it was 58.2 µM (inactive); in the experiment on EKVX, 43.6 µM (inactive). The GI50 was 40.9 µM (inactive) in the experiment with SNB-75; 12.6 µM (inactive) in the experiment with HCC 2998; 34.5 µM (inactive) in the experiment with SN12C; 25.8 µM (inactive) in the experiment on ACHN; 85.1 µM (inactive) in the experiment with OVCAR-5; 55.7 µM (inactive) in the experiment on RXF 393. In addition, in the experiment with OVCAR-8, the GI50 is 30.7 µM (inactive).

On to `COc1ccc(C2=NNC(=O)c3ccccc3N2c2nc(-c3cccs3)nc3cc(OC)c(OC)cc23)cc1`, for which the GI50 was 14.6 µM (inactive) in the experiment with CAKI-1; 2.6 µM (inactive) with Malme-3M; 4.34 µM (inactive) in the experiment with UO-31; 5.27 µM (inactive) with SK-MEL-2; 4.09 µM (inactive) in the experiment on KM12; 3.75 µM (inactive) with MDA-MB-435. For the same compound, the GI50 in the experiment on A549 was 5.6 µM (inactive); in the experiment with Hs-578T, 3.85 µM (inactive); in the experiment with NCI-H23, 7.13 µM (inactive); in the experiment on SK-MEL-28 it was 2.39 µM (inactive); in the experiment on BT-549 it was 2.62 µM (inactive); with EKVX it was 20.9 µM (inactive). In addition, the GI50 with SNB-75 is 3.81 µM (inactive); with HCC 2998, 2.96 µM (inactive); with SN12C it was 3.17 µM (inactive); with ACHN, 3.07 µM (inactive); with OVCAR-5 it was 27.7 µM (inactive); in the experiment on MCF7, 3.36 µM (inactive). In the experiment with OVCAR-8, the GI50 was 5.05 µM (inactive).

On to `Fc1cc(-c2cc(-c3ccc4c(c3)OCO4)n[nH]2)c(Cl)cc1Cl`, for which the GI50 in the experiment on CAKI-1 is 3.18 µM (inactive); with Malme-3M, 4.94 µM (inactive); in the experiment on UO-31 it was 2.51 µM (inactive); with SK-MEL-2 it was 15.8 µM (inactive); with KM12 it was 3.01 µM (inactive); in the experiment on MDA-MB-435, 4.88 µM (inactive). In addition, the GI50 is 2.72 µM (inactive) with A549; 3.99 µM (inactive) in the experiment with Hs-578T; 2.47 µM (inactive) in the experiment with NCI-H23; 5.22 µM (inactive) in the experiment on SK-MEL-28; 6.59 µM (inactive) in the experiment on BT-549; 1.75 µM (inactive) with EKVX. Moreover, the GI50 is 1.8 µM (inactive) in the experiment on SNB-75; 4.94 µM (inactive) in the experiment on HCC 2998; 2.7 µM (inactive) in the experiment with SN12C; 1.95 µM (inactive) in the experiment on ACHN; 3.28 µM (inactive) in the experiment on OVCAR-5; 1.89 µM (inactive) in the experiment on RXF 393. In addition, the GI50 in the experiment on OVCAR-8 is 1.85 µM (inactive).

Regarding `COc1cc(S(=O)(=O)Nc2ccc(-c3csc(N4C(=O)C(C)SC4c4ccccc4)n3)cc2)ccc1Cl` (configuration not stated), the GI50 in the experiment on CAKI-1 was > 100 µM (inactive); in the experiment with Malme-3M, 80.4 µM (inactive); in the experiment with UO-31 it was > 100 µM (inactive); with SK-MEL-2, 0.979 µM (active); with KM12 it was 0.082 µM (active); in the experiment on MDA-MB-435, 24.6 µM (inactive). Further, the GI50 was > 100 µM (inactive) in the experiment with A549; 0.794 µM (active) with Hs-578T; 51.4 µM (inactive) with NCI-H23; 24.7 µM (inactive) with SK-MEL-28; 20.9 µM (inactive) in the experiment on BT-549; 7.52 µM (inactive) in the experiment on EKVX. The GI50 was 0.0555 µM (active) in the experiment on SNB-75; 94.2 µM (inactive) in the experiment on SN12C; > 100 µM (inactive) in the experiment on ACHN; > 100 µM (inactive) with OVCAR-5; 15.5 µM (inactive) in the experiment with RXF 393; 17.9 µM (inactive) in the experiment with MCF7. For the same compound, the GI50 in the experiment on OVCAR-8 was > 100 µM (inactive).

On to `Nc1ccc2nc3n(c(=O)c2c1)CCCCC3`, for which the GI50 in the experiment with CAKI-1, in the experiment on Malme-3M, in the experiment on UO-31, in the experiment with SK-MEL-2, in the experiment on KM12 and with MDA-MB-435 was > 100 µM (inactive) each time. Further, the GI50 in the experiment on A549 is > 100 µM (inactive); with Hs-578T it was > 100 µM (inactive); in the experiment on NCI-H23, > 100 µM (inactive); with SK-MEL-28 it was > 100 µM (inactive); with BT-549, 89.9 µM (inactive); with EKVX it was > 100 µM (inactive). The GI50 in the experiment on SNB-75, in the experiment with SN12C, in the experiment with ACHN, with OVCAR-5, with RXF 393 and with MCF7 was > 100 µM (inactive) each time. In addition, in the experiment on OVCAR-8, the GI50 was > 100 µM (inactive).

Turning to `COc1ccc(C(=O)N(C(=O)N2CCN(c3ccccc3)CC2)S(=O)(=O)c2ccccc2)cc1`, the GI50 in the experiment with CAKI-1 was 20.3 µM (inactive); in the experiment on Malme-3M it was 28.2 µM (inactive); in the experiment with UO-31, 13.6 µM (inactive); with SK-MEL-2 it was 18.5 µM (inactive); with KM12 it was 31.6 µM (inactive); in the experiment on MDA-MB-435, 29.5 µM (inactive). For the same compound, the GI50 in the experiment with A549 was 28.4 µM (inactive); in the experiment with Hs-578T it was 25.1 µM (inactive); with NCI-H23, 24.1 µM (inactive); in the experiment with SK-MEL-28 it was 30.8 µM (inactive); in the experiment with BT-549, 33.3 µM (inactive); with EKVX, 20.7 µM (inactive). The GI50 with SNB-75 was 32.7 µM (inactive); in the experiment with HCC 2998 it was 52.6 µM (inactive); in the experiment with SN12C, 24.3 µM (inactive); in the experiment on ACHN, 18.8 µM (inactive); in the experiment on OVCAR-5, 24.7 µM (inactive); in the experiment on MCF7, 29.6 µM (inactive). Besides, the GI50 with OVCAR-8 is 19.8 µM (inactive).

Take `CC(=O)C1(O)CCC2(O)C3(O)CC=C4CC(O)CCC4(C)C3CC(OC(=O)c3ccc(O)cc3)C12C` (configuration not stated): the GI50 in the experiment with CAKI-1, in the experiment with UO-31, in the experiment with SK-MEL-2, in the experiment with KM12, in the experiment on MDA-MB-435 and in the experiment on A549 was > 100 µM (inactive) throughout. Also, the GI50 in the experiment with Hs-578T, in the experiment on NCI-H23, in the experiment on SK-MEL-28, in the experiment with BT-549, in the experiment on EKVX and in the experiment with SNB-75 was > 100 µM (inactive) throughout. The GI50 with HCC 2998, with SN12C, in the experiment with ACHN, in the experiment with OVCAR-5, with MCF7 and in the experiment on OVCAR-8 was > 100 µM (inactive) each time.

Turning to `COC1=CC(=O)C2=C(C1=O)[C@H]1CC[C@]3(C)[C@@H](OC(C)=O)CC[C@H]3[C@@H]1CC2`, the GI50 in the experiment on CAKI-1 was 49 µM (inactive); in the experiment on Malme-3M it was 30.3 µM (inactive); in the experiment with UO-31, > 100 µM (inactive); in the experiment on SK-MEL-2, 37.5 µM (inactive); with KM12, 60.3 µM (inactive); with MDA-MB-435, 19.2 µM (inactive). For the same compound, the GI50 in the experiment with A549 is > 100 µM (inactive); in the experiment with Hs-578T, 38.3 µM (inactive); with NCI-H23, 40.3 µM (inactive); with SK-MEL-28, > 100 µM (inactive); in the experiment on BT-549 it was > 100 µM (inactive); in the experiment with EKVX it was 13.6 µM (inactive). The GI50 in the experiment with SNB-75 was > 100 µM (inactive); with SN12C, 95.9 µM (inactive); with ACHN it was 35.1 µM (inactive); in the experiment on OVCAR-5, 37.8 µM (inactive); in the experiment on RXF 393, 61.2 µM (inactive); in the experiment with OVCAR-8 it was 23.9 µM (inactive).

Consider `C=C(C)[C@@H]1CC[C@]2(C)CC[C@]3(C)[C@H](CC[C@@H]4[C@@]5(C)CC[C@H](OC(=O)c6ccccc6)C(C)(C)[C@@H]5CC[C@]43C)[C@@H]12`, for which the GI50 in the experiment on CAKI-1, in the experiment on Malme-3M, in the experiment on UO-31, in the experiment with SK-MEL-2, with KM12 and with MDA-MB-435 was > 100 µM (inactive) throughout. Further, the GI50 with A549, in the experiment on Hs-578T, in the experiment on NCI-H23, with SK-MEL-28, with BT-549 and in the experiment with EKVX was > 100 µM (inactive) throughout. The GI50 in the experiment on SNB-75 is 90.8 µM (inactive); with HCC 2998 it was > 100 µM (inactive); in the experiment with SN12C it was > 100 µM (inactive); with ACHN, > 100 µM (inactive); with OVCAR-5, > 100 µM (inactive); in the experiment on MCF7 it was > 100 µM (inactive). The GI50 in the experiment on OVCAR-8 was > 100 µM (inactive).

As for `COc1c2c(cc3oc(=O)ccc13)OC(C)(C)C=C2` [XANTHOXYLETIN], the GI50 in the experiment with CAKI-1 is 2.26 µM (inactive); with Malme-3M, 30.1 µM (inactive); with UO-31 it was 25.8 µM (inactive); with SK-MEL-2, 23 µM (inactive); with KM12 it was 19.2 µM (inactive); with MDA-MB-435, 27.2 µM (inactive). The GI50 was 31.7 µM (inactive) with A549; 29.9 µM (inactive) in the experiment on Hs-578T; 23.6 µM (inactive) with NCI-H23; 32.6 µM (inactive) in the experiment with SK-MEL-28; 25.6 µM (inactive) in the experiment with BT-549; 37.9 µM (inactive) in the experiment on EKVX. The GI50 in the experiment on SNB-75 is 22 µM (inactive); with HCC 2998, 18.7 µM (inactive); with SN12C, 29 µM (inactive); with ACHN, 27.9 µM (inactive); with MCF7 it was 25.4 µM (inactive); in the experiment with OVCAR-8 it was 24.2 µM (inactive).

(Values after ChEMBL document CHEMBL1201862, “PubChem BioAssay data set” (2004).)
